Entries after “also recorded” stand apart in the source; their conditions may differ.
Assays:
[1] = tested on: CK2-mediated phosphorylation of WNV C in Vero cells; assay: In vivo 32P labeling and immunoprecipitation of WNV C from transfected cells under DRB; type: cell-based, African green monkey; conditions: cells transfected with pcWNV C-His; DRB 100, 500 and 1000 μM; anti-His immunoprecipitation
Experimental: In vivo ^32P-Orthophosphate labeling and WNV C immunoprecipitation. In order to check whether Cp is phosphorylated in vivo also, Capsid-transfected cells were pulse-chased with […] and their lysates were analyzed for the detection of phosphorylated capsid proteins by Immunoprecipitation. HeLa cells were grown in DMEM medium supplemented with 10% FBS until they were subconfluent. The cells were transfected with WNV Cp constructs and DOTAP/DNA containing media were replaced after about 6-hours with media with/without […]. DBS was added to a final concentration of 0.1, 0.5 and 1.0 mM. The Control cells were treated with DMSO alone. Phospholabeling and immunoprecipitation of WNV CP were performed as described previously. […] WNV CP was precipitated with anti-His monoclonal antibody (Scil Diagnostics, Martinsried, Germany). […] The immunoprecipitated capsid proteins were eluted from the protein G-agarose by boiling them for 5 min and analyzed by SDS-PAGE, followed by autoradiography.
Subsequent to the identification and characterization of CK2-mediated phosphorylation of the rC in vitro, we wanted to study this phenomenon in vivo. […] The lysates from the matching controls that were not exposed to radioactivity, were analyzed separately for capsid expression. […]

[2] = tested on: WNV; assay: WNV titers by plaque assay on Vero cells; type: cell-based, West Nile virus; conditions: DRB at different doses (FIG. 7B)
Experimental: The inhibited level of viral release indicates the siRNA-CK2 mediated effects are statistically significant.
Virus titration by plaque assay. Virus production was titered by plaque assays using Vero cells. For routine analysis, cells were seeded in 6-well (6×10^5 cells/well) or 12-well (3×10^5 cells/well) plates in -MEM with 10% FBS for 3 h at 37° C. Medium was removed, serial dilutions of virus supernatants in -MEM with 2% FBS were added (0.30 ml/well for 6-well plates and 0.15 ml/well for 12-well plates), and the cells were incubated for 2 h at 37° C. […] Virus concentrations are determined as PFU per milliliter.
In the context of whole virus, we examined whether inhibition of cellular CK2 affects WN viral release. […] We harvested culture fluid at regular intervals, determined viral titre by routine Plaque assays and used them for infection assays. […] Forty-eight hours post infection, viral release was monitored by both plaque assays as well as ELISAs measuring the presence of […] using monoclonal anti E antibody. FIG. 6B depicts the release of viral molecules from WNV-infected cells as measured by ELISA using anti-E antibody. […] In order to test this, in the second approach, WNV release was evaluated under the conditions where expression of CK2 subunits was knocked out. […] Release of WNV was monitored from these plates. […]

[3] = tested on: WNV; assay: WNV release from infected 293 cells, ELISA with anti-E antibody; type: cell-based, West Nile virus; conditions: 4 MOI, 48 h post infection
From the text: FIG. 6 includes panels A and B. Both reduced CK2 activity and depletion of CK2 transcripts affects viral release. FIG. 6 panel A: Depletion of CK2 transcripts reduced viral replication. As described earlier, the cells were transfected with full-length infectious clone along with siRNA-CK2α and siRNA-CK2β molecules. Lane 1 depicts the amount of viral release from the plates that were not treated with any of siRNA molecules. […] FIG. 6 panel B: Effect of cell-permeable CK2-inhibitor on viral release. 293 cells were infected with infectious WNV samples, propagated from an infectious clone of WNV.
In the context of whole virus, we examined whether inhibition of cellular CK2 affects WN viral release. We generated high titer of viral sample from Vero cells transfected with full length infectious clone (Pierson et al 2005). We harvested culture fluid at regular intervals, determined viral titre by routine Plaque assays and used them for infection assays. […] Forty-eight hours post infection, viral release was monitored by both plaque assays as well as ELISAs measuring the presence of […] using monoclonal anti E antibody. FIG. 6B depicts the release of viral molecules from WNV-infected cells as measured by ELISA using anti-E antibody. […] While the inhibition of cellular CK2 activity results in the reduced viral load, it is presumable that depletion of CK2 transcripts also could cause similar effect. In order to test this, in the second approach, WNV release was evaluated under the conditions where expression of CK2 subunits was knocked out. Cellular CK2 was knocked out by using siRNA molecules that specifically target CK2α and CK2β transcripts. siRNA-CK2α and siRNA-CK2β molecules were used to deplete cellular transcripts of CK2. 293 cells were infected with infectious WNV followed by the treatment with either siRNA control molecules or siRNA-CK2α or siRNA-CK2β molecules. Release of WNV was monitored from these plates. […] We also observed severe impairment of capsid phosphorylation in the pulse-chase studies under the influence of siRNA molecules.

[4] = tested on: capsid-containing VLPs; assay: ELISA of capsid from culture fluid (secretion of capsid-containing VLPs); type: cell-based; conditions: DRB added to culture medium; anti-C ELISA
From the text: Quantification of the protein C in ELISA from the supernatants of transfected cells. The ability of unprocessed and truncated capsid proteins to participate in the budding was assed by ELISA from culture fluid of transfected cells. In 6 cm plates, the cells were transfected with full-length capsid (123 aa) or truncated capsid (105 aa) or C(S36A) plasmids or in combination with WNV M and E-expressing constructs. Forty eight hours post-transfection, the supernatants were collected and analyzed for viral budding. One hundred microliters of supernatants were plated in triplicate, in a serial dilution series (dilutions in carbonate bicarbonate buffer) on a high protein binding EIA/RIA 96 well plate (Costar) and incubated at 4° C. overnight. In addition to the supernatants from experimental samples, a mock-transfected and untransfected media control is also added to the assay samples. Moreover, a series of wells are used as negative controls for the assay in that no supernatant is added to these wells only carbonate bicarbonate buffer. After 3 washes with PBS, nonspecific binding sites are blocked with 3% BSA in PBS solution, for 2 hours at room temperature. […] The reaction is terminated by adding 4N H2SO4 and protein levels are measured using an ELISA reader (Molecular Diagnostics) at 450 nm. […]

[5] = target: T1, recombinant CK2 (Homo sapiens, UniProt P68400); assay: In vitro CK2 kinase assay with recombinant WNV C as substrate; type: biochemical; conditions: 32P-ATP or 32P-GTP as donor; autoradiography
T1 construct: purchased Biomol Research Laboratories (Plymouth Meeting, Pa.)
Experimental: In vitro protein kinase assays. In vitro phosphorylation assays were routinely done with the recombinant Cp proteins with the recombinant CK2 (Biomol, Pa.) in a 20 μl-reaction volume. Reaction mixtures (20 μL) contained 25 mM Hepes, pH 7.4, 2 mM MnCl2 or 5 mM MgCl2, 1.6 μCi of -^32P-GTP or […] (Amersham Pharmacia Biotech), and 0.5 to 1 μg of purified His-tagged WNV Cp as a substrate. Histone 1B (Calbiochem) protein was used as positive control. The phosphorylation reaction was started by the addition of ^32P-ATP or ^32P-GTP and the reaction was carried out for 30 min at 30 C. The kinase assays were arrested by the addition of 20 μl of SDS-sample buffer and the reaction mixtures were boiled for five minutes. Phosphorylated proteins were separated in SDS PAGE and proteins ere visualized by autoradiography.
Purified rC fractions from E. coli cells (M15[pREP4+pQE-WNV C]) were subjected to subsequent kinase assays. Using purified CK2 enzyme, in vitro assay was performed with ^32P-ATP as a phosphate donor to examine possible role of CK2 in the phosphorylation of WNV C. […] CK2 is unique among protein kinases in its ability to use both ATP and GTP as phosphoryl group donors. Another biochemical property of CK2 that makes it different from other kinases is its high sensitivity to inhibition by heparin.

T1 sequence (P68400 whole entry): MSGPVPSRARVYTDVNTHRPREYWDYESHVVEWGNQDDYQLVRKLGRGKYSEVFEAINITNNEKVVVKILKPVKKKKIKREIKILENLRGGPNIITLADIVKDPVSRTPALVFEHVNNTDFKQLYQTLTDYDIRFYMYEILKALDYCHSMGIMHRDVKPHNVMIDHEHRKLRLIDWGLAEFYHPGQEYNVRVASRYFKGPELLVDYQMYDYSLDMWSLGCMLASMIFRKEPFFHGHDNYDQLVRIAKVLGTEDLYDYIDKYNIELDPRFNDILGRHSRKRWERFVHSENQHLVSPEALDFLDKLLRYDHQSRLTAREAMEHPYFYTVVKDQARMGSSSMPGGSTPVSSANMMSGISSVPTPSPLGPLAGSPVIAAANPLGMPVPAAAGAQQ
T1 sequence (P67870 whole entry partner): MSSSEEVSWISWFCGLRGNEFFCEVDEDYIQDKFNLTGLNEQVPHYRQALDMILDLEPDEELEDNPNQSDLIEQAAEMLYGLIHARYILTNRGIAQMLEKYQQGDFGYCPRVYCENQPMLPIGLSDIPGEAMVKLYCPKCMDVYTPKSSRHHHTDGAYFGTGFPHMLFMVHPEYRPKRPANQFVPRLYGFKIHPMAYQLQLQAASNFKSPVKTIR

Row | Molecule | in vivo phosphorylation of WNV C [1] | WNV replication and release into culture medium by plaque assay [2] | viral release ([3]; DRB 5 uM) | viral release ([3]; DRB 10 uM) | viral release ([3]; DRB 50 uM) | level of capsid in the culture fluid [4] | heparin concentration at which the ability of CK2 to phosphorylate C was adversely affected [5] | phosphorylation of C by CK2 in vitro [5]
1 | OC[C@H]1O[C@@H](n2cnc3cc(Cl)c(Cl)cc32)[C@H](O)[C@@H]1O [DRB, 5,6-Dichloro-1-b-D-ribofuranosylbenzimidazole] | severely inhibited; also recorded: specifically blocks the phosphorylation of capsid; also recorded: adversely inhibited | dose dependent | significantly reduces viral release | reduced by almost one fold | completely effective at blocking viral release | significantly reduced the level of capsid from the culture fluid |  | 
2 | heparin |  |  |  |  |  |  | above 10 uM | severely inhibited; also recorded: severely impaired in a dose dependent manner

— patent publication US20100256217A1, “ANTIVIRAL INHIBITION OF CASEIN KINASE II” (The Trustees of the University of Pennsylvania, priority 2006, published 2010)
